The text below walks through data of ChEMBL document CHEMBL1139809, “Antinociceptive activity of furan-containing congeners of improgan and ranitidine” (2007).

The subject of the test is Rattus norvegicus. In words: Antinociceptive activity in icv dosed Sprague-Dawley rat assessed as latency to hind lift after 10 mins by hot plate test. Type of test: functional. On the technique in general: In hot-plate and tail-flick tests a longer latency is read as antinociception.
As to `CN/C(=N/C#N)NCCCCc1ccc(CN(C)C)o1`, the ED50 turned out to be 159 nmol.
Then `CN(C)Cc1ccc(CCCCc2ccccc2)o1`, with 143 nmol; and `CC(=O)NCCCCc1ccc(CN(C)C)o1`, with 126 nmol; and `CN(C)Cc1ccc(CCCCNC(=O)Nc2ccc(I)cc2)o1`, with greater than 226 nmol.
Take `CN(C)Cc1ccc(CCCCNc2ccccc2)o1`: the ED50 is recorded as 131 nmol.
As for `CN(C)Cc1ccc(CCCCCCNC(=O)Nc2ccc(I)cc2)o1`, the ED50 was greater than 149 nmol.
Take `CN/C(=C/[N+](=O)[O-])NCCCCCCc1ccc(CN(C)C)o1`: the ED50 was 25 nmol.
To `CN(C)Cc1ccc(CCCCCCNC(=O)Nc2ccccc2)o1` belongs 284 nmol; to `CN/C(=N/C#N)NCCCCCCc1ccc(CN(C)C)o1`, 120 nmol; to `CN(C)Cc1ccc(CCCCN)o1`, 689 nmol.
Turning to `CN(C)Cc1ccc(CCCCNC(=O)c2ccccc2)o1`, the ED50 was determined as 203 nmol.
`CN/C(=C/[N+](=O)[O-])NCCCCc1ccc(CN(C)C)o1`: the ED50 was found to be 111 nmol.
